One data set deals with T1, HCMV polymerase (Human cytomegalovirus, UniProt P08546).
T1 construct: made in house; host or cells: recombinant baculovirus-infected SF-9 cells
Put plainly: HCMV polymerase assay (scintillation proximity assay, modified version). Format: biochemical. Particulars: modified HCMV polymerase SPA; for IC50: compounds diluted in 100% DMSO, 4.5 mM DTT. How it is done: The HCMV polymerase assay is performed using a scintillation proximity assay (SPA) as described in several references, such as N. D. Cook, et al., Pharmaceutical Manufacturing International, pages 49-53 (1992); K. Takeuchi, Laboratory Practice, September issue (1992); U.S. Pat. No. 4,568,649 (1986); which are incorporated by reference herein. Reactions are performed in 96-well plates. The assay is conducted in 100 μl volume with 5.4 mM HEPES (pH 7.5), 11.7 mM KCl, 4.5 mM MgCl2, 0.36 mg/ml BSA, and 90 nM ^3H-dTTP. Assays are run with and without CHAPS, (3-[(3-cholamidopropyl)-dimethylammonio]-1-propane-sulfonate) at a final concentration of 2 mM. HCMV polymerase is diluted in enzyme dilution buffer containing 50% glycerol, 250 mM NaCl, 10 mM HEPES (pH 7.5), 100 μg/ml BSA, and 0.01% sodium azide. The HCMV polymerase, which is expressed in recombinant baculovirus-infected SF-9 cells and purified according to literature procedures, is added at 10% (or 10 μl) of the final reaction volume, i.e., 100 μl. Compounds are diluted in 50% DMSO and 10 μl are added to each well. Control wells contain an equivalent concentration of DMSO. Unless noted otherwise, reactions are initiated via the addition of 6 nM biotinylated poly(dA)-oligo(dT) template/primer to reaction mixtures containing the enzyme, substrate, and compounds of interest. Plates are incubated in a 25° C. or 37° C. H2O bath and terminated via the addition of 40 μl/reaction of 0.5 M EDTA (pH 8) per well. Reactions are terminated within the time-frame during which substrate incorporation is linear and varied depending upon the enzyme and conditions used, i.e., 30 min. for HCMV polymerase. Ten μl of streptavidin-SPA beads (20 mg/ml in PBS/10% glycerol) are added following termination of the reaction. Plates are incubated 10 min. at 37° C., then equilibrated to room temperature, and counted on a Packard Topcount. Linear regressions are performed and IC50's are calculated using computer software.
A modified version of the above HCMV polymerase assay is performed as described above, but with the following changes: Compounds are diluted in 100% DMSO until final dilution into assay buffer. In the previous assay, compounds are diluted in 50% DMSO. 4.5 mM dithiotherotol (DTT) is added to the polymerase buffer. […] All results are listed as Polymerase IC50 (μM) values. In Table 1, the term “nd” refers to activity data not determined.

T1 sequence (P08546 whole entry): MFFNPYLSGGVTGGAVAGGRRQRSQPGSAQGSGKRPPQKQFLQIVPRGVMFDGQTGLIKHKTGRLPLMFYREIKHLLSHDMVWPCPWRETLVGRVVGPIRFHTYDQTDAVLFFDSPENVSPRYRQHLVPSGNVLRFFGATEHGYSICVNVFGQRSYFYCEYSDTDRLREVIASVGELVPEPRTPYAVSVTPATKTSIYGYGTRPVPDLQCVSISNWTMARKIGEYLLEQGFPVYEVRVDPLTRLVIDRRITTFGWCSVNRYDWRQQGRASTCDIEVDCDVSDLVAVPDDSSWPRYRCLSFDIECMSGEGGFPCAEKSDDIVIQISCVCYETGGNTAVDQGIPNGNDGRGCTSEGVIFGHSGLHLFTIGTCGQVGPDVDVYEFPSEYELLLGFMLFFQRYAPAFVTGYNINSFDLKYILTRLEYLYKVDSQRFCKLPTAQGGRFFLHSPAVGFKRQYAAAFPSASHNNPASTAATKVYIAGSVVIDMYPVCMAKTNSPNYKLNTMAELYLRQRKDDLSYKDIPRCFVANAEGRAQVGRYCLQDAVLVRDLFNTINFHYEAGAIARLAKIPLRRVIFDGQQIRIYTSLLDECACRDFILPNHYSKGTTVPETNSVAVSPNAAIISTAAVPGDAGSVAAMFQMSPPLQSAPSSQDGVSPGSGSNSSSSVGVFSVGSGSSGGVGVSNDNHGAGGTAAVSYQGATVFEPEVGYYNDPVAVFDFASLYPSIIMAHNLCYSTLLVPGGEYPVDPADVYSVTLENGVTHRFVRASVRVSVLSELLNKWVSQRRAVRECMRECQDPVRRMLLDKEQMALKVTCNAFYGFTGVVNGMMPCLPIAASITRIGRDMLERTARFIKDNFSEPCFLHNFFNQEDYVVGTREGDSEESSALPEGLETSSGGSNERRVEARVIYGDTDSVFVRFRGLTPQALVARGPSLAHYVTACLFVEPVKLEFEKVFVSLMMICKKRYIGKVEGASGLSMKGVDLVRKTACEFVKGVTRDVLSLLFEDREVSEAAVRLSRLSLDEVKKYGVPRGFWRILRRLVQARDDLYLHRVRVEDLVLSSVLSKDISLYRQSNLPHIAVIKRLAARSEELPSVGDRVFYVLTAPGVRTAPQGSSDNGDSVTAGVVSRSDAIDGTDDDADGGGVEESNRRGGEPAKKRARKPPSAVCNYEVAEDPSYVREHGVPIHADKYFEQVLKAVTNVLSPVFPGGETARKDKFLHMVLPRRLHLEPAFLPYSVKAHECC

For `Cc1nc2ncc(C(=O)NCc3ccc(Cl)cc3)c(O)c2cc1I` [Example 4, N-(4-chlorobenzyl)-4-hydroxy-6-iodo-7-methyl[1,8]naphthyridine-3-carboxamide], the melting point (in general, the temperature of the solid-liquid transition) is 276 to 277 °C. In addition, the IC50 (in general, the concentration at which inhibition is half-maximal) against HCMV polymerase came out at 13.7 µM.
On the same counts, the results for `Cc1nc2ncc(C(=O)NCc3ccc(Cl)cc3)c(O)c2cc1C#CCO` [Example 3, N-(4-chlorobenzyl)-4-hydroxy-6-(3-hydroxy-1-propynyl)-7-methyl[1,8]naphthyridine-3-carboxamide] are 279 to 281 °C (dec.) and 2.1 µM.
On the same counts, the results for `COC(=O)c1cc2c(O)c(C(=O)NCc3ccc(Cl)cc3)cnc2nc1C` [Example 5, Methyl 6-{[(4-chlorobenzyl)amino]carbonyl}-5-hydroxy-2-methyl[1,8]naphthyridine-3-carboxylate] are 265 to 267 °C and 8.5 µM.
Compound `Cc1nc2ncc(C(=O)NCc3ccc(Cl)cc3)c(O)c2cc1Br` [Example 2, 6-bromo-N-(4-chlorobenzyl)-4-hydroxy-7-methyl[1,8]naphthyridine-3-carboxamide] displayed a melting point of 269 to 270 °C. At HCMV polymerase (at 20 μm), this compound returned an HCMV polymerase inhibition of 39% inhibition.
Turning to `Cc1ccc2c(O)c(C(=O)NCc3ccc(Cl)cc3)cnc2n1` [Example 1, N-(4-chlorobenzyl)-4-hydroxy-7-methyl[1,8]naphthyridine-3-carboxamide], the melting point is 280 to 285 °C (dec.). The IC50 against HCMV polymerase was determined as 26 µM.
